In ChEMBL document CHEMBL2413072, “Synthesis and in vitro anticancer studies of novel C-2 arylidene congeners of lantadenes” (2013):

Experiments:
Format in all cases: functional
A549 = test: Growth inhibition of human A549/ATCC cells assessed as cell growth at 10 uM by sulforhodamine B assay; details: read-out: Activity
OVCAR-5 = test: Growth inhibition of human OVCAR5 cells assessed as cell growth at 10 uM by sulforhodamine B assay; details: read-out: Activity
U-251 = test: Growth inhibition of human U251 cells assessed as growth inhibition at 10 uM by sulforhodamine B assay; details: read-out: GI
[1] = Growth inhibition of human HCC2998 cells assessed as growth inhibition at 10 uM by sulforhodamine B assay; details: HCC 2998, read-out: GI
CCRF-CEM = test: Growth inhibition of human CCRF-CEM cells assessed as cell growth at 10 uM by sulforhodamine B assay; details: read-out: Activity
PC-3 [2] = test: Growth inhibition of human PC3 cells assessed as growth inhibition at 10 uM by sulforhodamine B assay; details: read-out: GI
NCI-H226 [3] = test: Growth inhibition of human NCI-H226 cells assessed as cell growth at 10 uM by sulforhodamine B assay; details: read-out: Activity
SK-MEL-2 = test: Growth inhibition of human SK-MEL-2 cells assessed as cell growth at 10 uM by sulforhodamine B assay; details: read-out: Activity
NCI-H322M = test: Growth inhibition of human NCI-H322M cells assessed as growth inhibition at 10 uM by sulforhodamine B assay; details: read-out: GI
LOX IMVI = test: Growth inhibition of human LOXIMVI cells assessed as growth inhibition at 10 uM by sulforhodamine B assay; details: read-out: GI
SK-MEL-28 [4] = test: Growth inhibition of human SK-MEL-28 cells assessed as cell growth at 10 uM by sulforhodamine B assay; details: read-out: Activity
NCI-H23 = test: Growth inhibition of human NCI-H23 cells assessed as growth inhibition at 10 uM by sulforhodamine B assay; details: read-out: GI
HT-29 = test: Growth inhibition of human HT-29 cells assessed as growth inhibition at 10 uM by sulforhodamine B assay; details: read-out: GI
NCI-H460 = test: Growth inhibition of human NCI-H460 cells assessed as growth inhibition at 10 uM by sulforhodamine B assay; details: read-out: GI
NCI-H226 [5] = test: Growth inhibition of human NCI-H226 cells assessed as growth inhibition at 10 uM by sulforhodamine B assay; details: read-out: GI
MCF7 = test: Growth inhibition of human MCF7 cells assessed as cell growth at 10 uM by sulforhodamine B assay; details: read-out: Activity
A498 = test: Growth inhibition of human A498 cells assessed as growth inhibition at 10 uM by sulforhodamine B assay; details: read-out: GI
SF-295 [6] = test: Growth inhibition of human SF295 cells assessed as cell growth at 10 uM by sulforhodamine B assay; details: read-out: Activity
OVCAR-4 = test: Growth inhibition of human OVCAR4 cells assessed as growth inhibition at 10 uM by sulforhodamine B assay; details: read-out: GI
PC-3 [7] = test: Growth inhibition of human PC3 cells assessed as cell growth at 10 uM by sulforhodamine B assay; details: read-out: Activity
HOP-62 = test: Growth inhibition of human HOP62 cells assessed as cell growth at 10 uM by sulforhodamine B assay; details: read-out: Activity
HCT-116 = test: Growth inhibition of human HCT116 cells assessed as growth inhibition at 10 uM by sulforhodamine B assay; details: read-out: GI
SK-OV-3 = test: Growth inhibition of human SKOV3 cells assessed as growth inhibition at 10 uM by sulforhodamine B assay; details: read-out: GI
MDA-MB-435 = test: Growth inhibition of human MDA-MB-435 cells assessed as cell growth at 10 uM by sulforhodamine B assay; details: read-out: Activity
MDA-MB-468 = test: Growth inhibition of human MDA-MB-468 cells assessed as growth inhibition at 10 uM by sulforhodamine B assay; details: read-out: GI
NCI-H522 [8] = test: Growth inhibition of human NCI-H522 cells assessed as cell growth at 10 uM by sulforhodamine B assay; details: read-out: Activity
NCI-H522 [9] = test: Growth inhibition of human NCI-H522 cells assessed as growth inhibition at 10 uM by sulforhodamine B assay; details: read-out: GI
SN12C = test: Growth inhibition of human SN12C cells assessed as growth inhibition at 10 uM by sulforhodamine B assay; details: read-out: GI
SF-268 = test: Growth inhibition of human SF268 cells assessed as growth inhibition at 10 uM by sulforhodamine B assay; details: read-out: GI
OVCAR-3 [10] = test: Growth inhibition of human OVCAR3 cells assessed as cell growth at 10 uM by sulforhodamine B assay; details: read-out: Activity
HCT-15 = test: Growth inhibition of human HCT15 cells assessed as cell growth at 10 uM by sulforhodamine B assay; details: read-out: Activity
UACC-62 = test: Growth inhibition of human UACC62 cells assessed as cell growth at 10 uM by sulforhodamine B assay; details: read-out: Activity
MOLT-4 = test: Growth inhibition of human MOLT4 cells assessed as growth inhibition at 10 uM by sulforhodamine B assay; details: read-out: GI
SF-539 = test: Growth inhibition of human SF539 cells assessed as cell growth at 10 uM by sulforhodamine B assay; details: read-out: Activity
MDA-MB-231 = test: Growth inhibition of human MDA-MB-231 cells assessed as cell growth at 10 uM by sulforhodamine B assay; details: read-out: Activity
RPMI-8226 [11] = test: Growth inhibition of human RPMI8226 cells assessed as growth inhibition at 10 uM by sulforhodamine B assay; details: read-out: GI
OVCAR-3 [12] = test: Growth inhibition of human OVCAR3 cells assessed as growth inhibition at 10 uM by sulforhodamine B assay; details: read-out: GI
[13] = Growth inhibition of human HCC2998 cells assessed as cell growth at 10 uM by sulforhodamine B assay; details: HCC 2998, read-out: Activity
[14] = Growth inhibition of human NCI-ADR-RES cells assessed as cell growth at 10 uM by sulforhodamine B assay; details: read-out: Activity
SF-295 [15] = test: Growth inhibition of human SF295 cells assessed as growth inhibition at 10 uM by sulforhodamine B assay; details: read-out: GI
786-0 = test: Growth inhibition of human 786-0 cells assessed as growth inhibition at 10 uM by sulforhodamine B assay; details: read-out: GI
SK-MEL-28 [16] = test: Growth inhibition of human SK-MEL-28 cells assessed as growth inhibition at 10 uM by sulforhodamine B assay; details: read-out: GI
OVCAR-8 = test: Growth inhibition of human OVCAR8 cells assessed as cell growth at 10 uM by sulforhodamine B assay; details: read-out: Activity
M14 = test: Growth inhibition of human M14 cells assessed as growth inhibition at 10 uM by sulforhodamine B assay; details: read-out: GI
CAKI-1 [17] = test: Growth inhibition of human CAKI-1 cells assessed as cell growth at 10 uM by sulforhodamine B assay; details: read-out: Activity
CAKI-1 [18] = test: Growth inhibition of human CAKI-1 cells assessed as growth inhibition at 10 uM by sulforhodamine B assay; details: read-out: GI
RPMI-8226 [19] = test: Growth inhibition of human RPMI8226 cells assessed as cell growth at 10 uM by sulforhodamine B assay; details: read-out: Activity
TK-10 = test: Growth inhibition of human TK10 cells assessed as growth inhibition at 10 uM by sulforhodamine B assay; details: read-out: GI

COc1cc(/C=C2\C[C@]3(C)[C@H]4CC=C5[C@@H]6CC(C)(C)C[C@@H](O)[C@]6(C(=O)O)CC[C@@]5(C)[C@]4(C)CC[C@H]3C(C)(C)C2=O)ccc1O
growth at 10 µM (A549): 71.8%
growth at 10 µM (OVCAR-5): 105%
inhibition of growth at 10 µM (U-251): 15.3%
inhibition of growth at 10 µM [1]: < 10%
growth at 10 µM (CCRF-CEM): 82%
inhibition of growth at 10 µM (PC-3 [2]): 27.8%
growth at 10 µM (NCI-H226 [3]): 100%
growth at 10 µM (SK-MEL-2): 100%
inhibition of growth at 10 µM (NCI-H322M): < 10%
inhibition of growth at 10 µM (LOX IMVI): 11.6%
growth at 10 µM (SK-MEL-28 [4]): 90.6%
inhibition of growth at 10 µM (NCI-H23): 15%
inhibition of growth at 10 µM (HT-29): 14.5%
inhibition of growth at 10 µM (NCI-H460): < 10%
inhibition of growth at 10 µM (NCI-H226 [5]): < 10%
growth at 10 µM (MCF7): 77.5%
inhibition of growth at 10 µM (A498): < 10%
growth at 10 µM (SF-295 [6]): 76.5%
inhibition of growth at 10 µM (OVCAR-4): 16.2%
growth at 10 µM (PC-3 [7]): 72.2%
growth at 10 µM (HOP-62): 96.9%
inhibition of growth at 10 µM (HCT-116): 15.2%
inhibition of growth at 10 µM (SK-OV-3): < 10%
growth at 10 µM (MDA-MB-435): 97.7%
inhibition of growth at 10 µM (MDA-MB-468): < 10%
growth at 10 µM (NCI-H522 [8]): 80.8%
inhibition of growth at 10 µM (NCI-H522 [9]): 19.2%
inhibition of growth at 10 µM (SN12C): 12.5%
inhibition of growth at 10 µM (SF-268): < 10%
growth at 10 µM (OVCAR-3 [10]): 106%
growth at 10 µM (HCT-15): 76.5%
growth at 10 µM (UACC-62): 75%
inhibition of growth at 10 µM (MOLT-4): 36.7%
growth at 10 µM (SF-539): 96.1%
growth at 10 µM (MDA-MB-231): 97.9%
inhibition of growth at 10 µM (RPMI-8226 [11]): 40.5%
inhibition of growth at 10 µM (OVCAR-3 [12]): < 10%
growth at 10 µM [13]: 95.2%
growth at 10 µM [14]: 92.7%
inhibition of growth at 10 µM (SF-295 [15]): 23.5%
inhibition of growth at 10 µM (786-0): < 10%
inhibition of growth at 10 µM (SK-MEL-28 [16]): < 10%
growth at 10 µM (OVCAR-8): 79.8%
inhibition of growth at 10 µM (M14): < 10%
growth at 10 µM (CAKI-1 [17]): 78.8%
inhibition of growth at 10 µM (CAKI-1 [18]): 21.2%
growth at 10 µM (RPMI-8226 [19]): 59.5%
inhibition of growth at 10 µM (TK-10): < 10%

CC1(C)C[C@@H](O)[C@]2(C(=O)O)CC[C@]3(C)C(=CC[C@@H]4[C@@]5(C)CC[C@H](O)C(C)(C)[C@@H]5CC[C@]43C)[C@@H]2C1
growth at 10 µM (A549): 87.5%
growth at 10 µM (OVCAR-5): 119%
inhibition of growth at 10 µM (U-251): < 10%
inhibition of growth at 10 µM [1]: < 10%
growth at 10 µM (CCRF-CEM): 88.4%
inhibition of growth at 10 µM (PC-3 [2]): 23.5%
growth at 10 µM (NCI-H226 [3]): 107%
growth at 10 µM (SK-MEL-2): 97.9%
inhibition of growth at 10 µM (NCI-H322M): < 10%
inhibition of growth at 10 µM (LOX IMVI): 11.1%
growth at 10 µM (SK-MEL-28 [4]): 95.6%
inhibition of growth at 10 µM (NCI-H23): < 10%
inhibition of growth at 10 µM (HT-29): < 10%
inhibition of growth at 10 µM (NCI-H460): < 10%
inhibition of growth at 10 µM (NCI-H226 [5]): < 10%
growth at 10 µM (MCF7): 96.4%
inhibition of growth at 10 µM (A498): < 10%
growth at 10 µM (SF-295 [6]): 153%
inhibition of growth at 10 µM (OVCAR-4): < 10%
growth at 10 µM (PC-3 [7]): 76.5%
growth at 10 µM (HOP-62): 98.9%
inhibition of growth at 10 µM (HCT-116): 17.3%
inhibition of growth at 10 µM (SK-OV-3): < 10%
growth at 10 µM (MDA-MB-435): 116%
inhibition of growth at 10 µM (MDA-MB-468): 88.8%
growth at 10 µM (NCI-H522 [8]): 95.3%
inhibition of growth at 10 µM (NCI-H522 [9]): < 10%
inhibition of growth at 10 µM (SN12C): 16.6%
inhibition of growth at 10 µM (SF-268): < 10%
growth at 10 µM (OVCAR-3 [10]): 101%
growth at 10 µM (HCT-15): 96.5%
growth at 10 µM (UACC-62): 88.2%
inhibition of growth at 10 µM (MOLT-4): 21.7%
growth at 10 µM (SF-539): 106%
growth at 10 µM (MDA-MB-231): 98.6%
inhibition of growth at 10 µM (RPMI-8226 [11]): 10.7%
inhibition of growth at 10 µM (OVCAR-3 [12]): < 10%
growth at 10 µM [13]: 109%
growth at 10 µM [14]: 104%
inhibition of growth at 10 µM (SF-295 [15]): < 10%
inhibition of growth at 10 µM (786-0): 13.8%
inhibition of growth at 10 µM (SK-MEL-28 [16]): < 10%
growth at 10 µM (OVCAR-8): 93.7%
inhibition of growth at 10 µM (M14): < 10%
growth at 10 µM (CAKI-1 [17]): 91.8%
inhibition of growth at 10 µM (CAKI-1 [18]): 15.2%
growth at 10 µM (RPMI-8226 [19]): 89.3%
inhibition of growth at 10 µM (TK-10): < 10%
